Experimental data taken from patent US7780966B2, “Artificial invaplex” (The United States of America as represented by the …, priority 2007, dated 2010).

Experiments:
IpaB = conditions: in vivo
IpaC = conditions: in vivo

In the case of ovalbumin, the “Anti-IpaB Serum IgG (geomean endpoint titer)” value (IpaB) is reported as 90 ± 0 and the “Anti-IpaC Serum IgG (geomean endpoint titer)” value (IpaC) is reported as 90 ± 0.
